According to US20250098679A1, “HERBICIDAL PYRIDONE DERIVATIVES” (SYNGENTA CROP PROTECTION AG, priority 2021, published 2025):

Key:
Format in all cases: in vivo
Conditions in all cases: evaluated after 13 days
Setaria faberi (SETFA) [1] = experiment: Pre-emergence Test, Setaria faberi (SETFA)
[2] = tested on: Echinochloa crus-galli (ECHCG); experiment: Pre-emergence Test, Echinochloa crus-galli (ECHCG)
Zea mays (ZEAMX) [3] = experiment: Pre-emergence Test, Zea mays (ZEAMX)
[4] = tested on: Ipomoea hederacea (IPOHE); experiment: Pre-emergence Test, Ipomoea hederacea (IPOHE)
[5] = tested on: Amaranthus palmeri (AMAPA); experiment: Pre-emergence Test, Amaranthus palmeri (AMAPA)
[6] = tested on: Amaranthus retoflexus (AMARE); experiment: Pre-emergence Test, Amaranthus retoflexus (AMARE)
Setaria faberi (SETFA) [7] = experiment: Post-emergence Test, Setaria faberi (SETFA); design: key to percentage damage caused to the plant, SETFA (five-point scale): 5=81-100%, 4=61-80%, 3=41-60%, 2=21-40%, 1=0-20% damage
In short: (§1)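 Spray application at 1000 g/ha unless otherwise stated. Damage was scored 13 days later as 1 (0-20%) to 5 (81-100%).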

[8] = tested on: Echinochloa crus-galli (ECHCG); experiment: Post-emergence Test, Echinochloa crus-galli (ECHCG); design: key to percentage damage caused to the plant, ECHCG (five-point scale): 5=81-100%, 4=61-80%, 3=41-60%, 2=21-40%, 1=0-20% damage
In short: as §1

Zea mays (ZEAMX) [9] = experiment: Post-emergence Test, Zea mays (ZEAMX); design: key to percentage damage caused to the plant, ZEAMX (five-point scale): 5=81-100%, 4=61-80%, 3=41-60%, 2=21-40%, 1=0-20% damage
In short: as §1

[10] = tested on: Ipomoea hederacea (IPOHE); experiment: Post-emergence Test, Ipomoea hederacea (IPOHE); design: key to percentage damage caused to the plant, IPOHE (five-point scale): 5=81-100%, 4=61-80%, 3=41-60%, 2=21-40%, 1=0-20% damage
In short: as §1

[11] = tested on: Amaranthus palmeri (AMAPA); experiment: Post-emergence Test, Amaranthus palmeri (AMAPA); design: key: 5=81-100%, 4=61-80%, 3=41-60%, 2=21-40%, 1=0-20% damage
In short: as §1

[12] = tested on: Amaranthus retoflexus (AMARE); experiment: Post-emergence Test, Amaranthus retoflexus (AMARE); design: key to percentage damage caused to the plant, AMARE (five-point scale): 5=81-100%, 4=61-80%, 3=41-60%, 2=21-40%, 1=0-20% damage
In short: as §1

Row | Compound | Pre-emergence Test SETFA, percentage damage caused to the plant (five-point scale) (Setaria faberi (SETFA) [1]; 250 g/Ha (*)) | Pre-emergence Test SETFA, percentage damage caused to the plant (five-point scale) (Setaria faberi (SETFA) [1]; 1000 g/ha) | Pre-emergence Test ECHCG, percentage damage caused to the plant (five-point scale) ([2]; 250 g/Ha (*)) | Pre-emergence Test ECHCG, percentage damage caused to the plant (five-point scale) ([2]; 1000 g/ha) | Pre-emergence Test ZEAMX, percentage damage caused to the plant (five-point scale) (Zea mays (ZEAMX) [3]; 1000 g/ha) | Pre-emergence Test IPOHE, percentage damage caused to the plant (five-point scale) ([4]; 1000 g/ha) | Pre-emergence Test AMAPA, percentage damage caused to the plant (five-point scale) ([5]; 1000 g/ha) | Pre-emergence Test AMARE, percentage damage caused to the plant (five-point scale) ([6]; 1000 g/ha) | percentage damage caused to the plant, SETFA (five-point scale) (Setaria faberi (SETFA) [7]; 250 g/Ha) | percentage damage caused to the plant, SETFA (five-point scale) (Setaria faberi (SETFA) [7]; 1000 g/ha) | percentage damage caused to the plant, ECHCG (five-point scale) ([8]; 250 g/Ha) | percentage damage caused to the plant, ECHCG (five-point scale) ([8]; 1000 g/ha) | percentage damage caused to the plant, ZEAMX (five-point scale) (Zea mays (ZEAMX) [9]; 250 g/Ha) | percentage damage caused to the plant, ZEAMX (five-point scale) (Zea mays (ZEAMX) [9]; 1000 g/ha) | percentage damage caused to the plant, IPOHE (five-point scale) ([10]; 250 g/Ha) | percentage damage caused to the plant, IPOHE (five-point scale) ([10]; 1000 g/ha) | percentage damage caused to the plant, AMAPA (five-point scale) ([11]; 250 g/Ha) | percentage damage caused to the plant, AMAPA (five-point scale) ([11]; 1000 g/ha) | percentage damage caused to the plant, AMARE (five-point scale) ([12]; 250 g/Ha) | percentage damage caused to the plant, AMARE (five-point scale) ([12]; 1000 g/ha) | further results
1 | CCn1c(Cn2ccc(C(F)(F)F)n2)cc(=O)c(C(=O)O)c1-c1ccc(Cl)c(Cl)c1 [Compound 2, 2-(3,4-dichlorophenyl)-1-ethyl-4-oxo-6-[[3-(trifluoromethyl)pyrazol-1-yl]methyl]pyridine-3-carboxylic acid] | 5 (5=81-100%) | 5 (5=81-100%) | 5 (5=81-100%) | 5 (5=81-100%) | 4 (4=61-80%) | 3 (3=41-60%) | 3 (3=41-60%) | 3 (3=41-60%) | 4 (4=61-80%) | 5 (5=81-100%) | 4 (4=61-80%) | 4 (4=61-80%) | 4 (4=61-80%) | 4 (4=61-80%) | 3 (3=41-60%) | 4 (4=61-80%) | 3 (3=41-60%) | 4 (4=61-80%) | 3 (3=41-60%) | 4 (4=61-80%) | Pre-emergence Test ZEAMX, percentage damage caused to the plant (five-point scale) (Zea mays (ZEAMX) [3]; 250 g/Ha (*)): 4 (4=61-80%); Pre-emergence Test IPOHE, percentage damage caused to the plant (five-point scale) ([4]; 250 g/Ha (*)): 4 (4=61-80%); Pre-emergence Test AMAPA, percentage damage caused to the plant (five-point scale) ([5]; 250 g/Ha (*)): 0; Pre-emergence Test AMARE, percentage damage caused to the plant (five-point scale) ([6]; 250 g/Ha (*)): 1 (1=0-20%)
2 | CCOC(=O)c1c(-c2cccc(Cl)c2)n(CC)c(Cn2ccc(C(F)(F)F)n2)cc1=O [Compound 26, ethyl 2-(3-chlorophenyl)-1-ethyl-4-oxo-6-[[3-(trifluoromethyl)pyrazol-1-yl]methyl]pyridine-3-carboxylate] | – | 3 (3=41-60%) | – | 2 (2=21-40%) | 1 (1=0-20%) | 0 | 0 | 0 | 1 (1=0-20%) | 1 (1=0-20%) | 1 (1=0-20%) | 1 (1=0-20%) | 1 (1=0-20%) | 2 (2=21-40%) | 1 (1=0-20%) | 3 (3=41-60%) | 1 (1=0-20%) | 2 (2=21-40%) | 1 (1=0-20%) | 1 (1=0-20%) | –
3 | CCn1c(Cn2ccc(OCCOC)n2)cc(=O)c(C(=O)O)c1-c1ccc(Cl)c(Cl)c1 [Compound 161, 2-(3,4-dichlorophenyl)-1-ethyl-6-[[3-(2-methoxyethoxy)pyrazol-1-yl]methyl]-4-oxo-pyridine-3-carboxylic acid] | 1 (1=0-20%) | 4 (4=61-80%) | 0 | 3 (3=41-60%) | 0 | 3 (3=41-60%) | 1 (1=0-20%) | 0 | 2 (2=21-40%) | 3 (3=41-60%) | 2 (2=21-40%) | 3 (3=41-60%) | 1 (1=0-20%) | 1 (1=0-20%) | 1 (1=0-20%) | 3 (3=41-60%) | 0 | 1 (1=0-20%) | 1 (1=0-20%) | 0 | Pre-emergence Test ZEAMX, percentage damage caused to the plant (five-point scale) (Zea mays (ZEAMX) [3]; 250 g/Ha (*)): 0; Pre-emergence Test IPOHE, percentage damage caused to the plant (five-point scale) ([4]; 250 g/Ha (*)): 0; Pre-emergence Test AMAPA, percentage damage caused to the plant (five-point scale) ([5]; 250 g/Ha (*)): 0; Pre-emergence Test AMARE, percentage damage caused to the plant (five-point scale) ([6]; 250 g/Ha (*)): 0
4 | CCn1c(Cn2cc(C(C)=O)c(C)n2)cc(=O)c(C(=O)O)c1-c1ccc(Cl)c(Cl)c1 [Compound 100, 6-[(4-acetyl-3-methyl-pyrazol-1-yl)methyl]-2-(3,4-dichlorophenyl)-1-ethyl-4-oxo-pyridine-3-carboxylic acid] | – | 1 (1=0-20%) | – | 0 | 0 | 2 (2=21-40%) | 2 (2=21-40%) | 2 (2=21-40%) | 0 | 2 (2=21-40%) | 3 (3=41-60%) | 2 (2=21-40%) | 0 | 1 (1=0-20%) | 0 | 3 (3=41-60%) | 0 | 2 (2=21-40%) | 0 | 2 (2=21-40%) | –
5 | CCn1c(Cn2cc(Cl)c(C3CC3)n2)cc(=O)c(C(=O)O)c1-c1ccc(Cl)c(Cl)c1 [Compound 94, 6-[(4-chloro-3-cyclopropyl-pyrazol-1-yl)methyl]-2-(3,4-dichlorophenyl)-1-ethyl-4-oxo-pyridine-3-carboxylic acid] | 1 (1=0-20%) | 1 (1=0-20%) | 2 (2=21-40%) | 2 (2=21-40%) | 0 | 1 (1=0-20%) | 2 (2=21-40%) | 1 (1=0-20%) | 0 | 4 (4=61-80%) | 4 (4=61-80%) | 1 (1=0-20%) | 0 | 0 | 0 | 3 (3=41-60%) | 2 (2=21-40%) | 3 (3=41-60%) | 3 (3=41-60%) | 3 (3=41-60%) | Pre-emergence Test ZEAMX, percentage damage caused to the plant (five-point scale) (Zea mays (ZEAMX) [3]; 250 g/Ha (*)): 0; Pre-emergence Test IPOHE, percentage damage caused to the plant (five-point scale) ([4]; 250 g/Ha (*)): 0; Pre-emergence Test AMAPA, percentage damage caused to the plant (five-point scale) ([5]; 250 g/Ha (*)): 1 (1=0-20%); Pre-emergence Test AMARE, percentage damage caused to the plant (five-point scale) ([6]; 250 g/Ha (*)): 0
